Square brackets hold non-standard residues; d marks the D form. Peptide text beside a SMILES is read from it. Cya = N[C@@H](CS(=O)(=O)O)C(=O)O
Legend:
[1] = system: study eye of subjects with intermediate non-exudative AMD; test: Humphrey visual field assessment (mean deviation, pattern standard deviation); type: in vivo, human
Description: Twenty-five subjects were assigned to Group 1 and fifteen (15) subjects were assigned to Group 2.

[2] = system: study eye of subjects with intermediate non-exudative AMD; test: Low-luminance visual acuity; type: in vivo, human
Description: Numerous study assessments were conducted at various time points throughout the study. Included among these study assessments were; refractive eye examinations, determinations of BCVA AND low-luminance BCVA, Lanthony D-15 color vision test, measurement of intraocular pressure (IOP), Indirect ophthalmoscopy/dilated fundus examinations and spectral-domain optical coherence tomography (SD-OCT). Also, blood and saliva samples were obtained from each subject for genetic analysis. The above-listed study assessments were performed at the time points indicated in Table 1, below: Table 10, below, summarizes low-luminescence visual acuity in the study subjects.

[3] = system: primary mouse retinal neuron cells; test: Trypan blue viability of primary mouse retinal neuron cells exposed to kainic acid; type: cell-based, CD1 mice; details: 1.0 mg/mL risuteganib alone
Description: Purpose: Investigate neuroprotective properties of risuteganib in primary mouse retinal neuron cells exposed to kainic acid, a neuroexcitatory compound that activates glutamate receptors, resulting in overstimulation and cell death.
Methods: Fresh retina were collected from CD1 mice and then mechanically dissociated with sterile Pasteur pipette. Cell suspensions were then dispensed into petri dish and incubated for 6 hours. Cells were then exposed to the experimental conditions: (1) untreated control, (2) 1.0 mg/mL risuteganib, (3) 500 μM kainic acid (KA), and (4) 1.0 mg/mL risuteganib for 24 hours before 500 μM kainic acid exposure. 8 hours after kainic acid treatment, dead and live cell numbers were measured using Trypan blue exclusion assay on a hemocytometer.

[4] = system: human retinal Müller cells (MIO-M1); test: Reactive oxygen species level in human Müller cells (MIO-M1); type: cell-based; details: 1× concentration (clinical dose), 24 hours
Description: Purpose: To determine the effects of risuteganib and anti-VEGF drugs on reactive oxygen species (ROS) levels in cultured human retinal Müller cells (MIO-M1). Elevated ROS levels can disrupt normal cellular functions, leading to reduced cell health and possible cell death.
Methods: The immortalized human retinal Müller cell line (MIO-M1) was obtained from the Department of Cell Biology of the University College, London. Cells were cultured in Dulbecco's Modified Eagle's Medium (DMEM) and plated in 24-well plates for 24 hours before treatment with 1× concentration of 1 mg/50 μL ALG-1001, ranibizumab, bevacizumab, or aflibercept. Dosage was based on clinical dose of each compound. The experiments were repeated 3 times with 6 replicates each. After 24 hours drug treatment, ROS level was measured using the fluorescent dye 2′,7′-dichlorodihydrofluorescein diacetate. The signals were read using the Biotek Synergy HT plate reader with EX filter in 482 nm and EM filter in 520 nm. Results were normalized to untreated control as 100%. Statistical analysis was performed in GraphPad Prism software program.

primary human RPE cells [5] = test: ROS level (CM-H2DCFDA) in primary human RPE cells exposed to hydroquinone; type: cell-based; details: 0.4 mM risuteganib co-treatment with HQ 125-180 uM
Description: (§1) Purpose: To determine if risuteganib protects against hydroquinone (HQ)-mediated cell injury, elevated ROS level and reduced mitochondrial membrane potential (Δψm) in cultured human RPE cells. Elevated ROS levels increase oxidative stress in the cells, leading to reduced cell health and cell death. Loss of ΔΨm is a marker for early cell death. Methods: Primary human RPE cells were seeded on collagen-coated 96-well plates in triplicates at 8K, 10K and […] cells/well, respectively. Cells reached 80% to 100% confluence 24 hours after plating, and confluent cells were then grown for an additional 4 or 5 days until growth was density arrested. On day 6 after plating, cells in the plate upper half were loaded with 20 μM CM-H2DCFDA (measures ROS level) and in the plate lower half with 10 μM JC-1 (measures Δψm) for 30 minutes at 37° C. […] For the ROS and Δψm assays, a fluorescence plate reader was used to quantify ROS production (490-nm excitation, 522-nm emission), and green monomer of JC-1 (490-nm excitation, 522-nm emission) and red JC-1 aggregate (535-nm excitation, 590-nm emission), respectively. […] The WST reagent was quantified with a plate reader at 440 nm and a reference wavelength at 690 nm. Data were normalized to untreated control as 100% and were expressed as the mean±SD.

primary human RPE cells [6] = test: WST-1 cell viability of primary human RPE cells exposed to hydroquinone; type: cell-based; details: 0.4 mM risuteganib co-treatment with HQ 125-180 uM
Description: as §1

[7] = Week 12, Group 2 (1 mg IVT day 1 + wk 16)
[8] = Week 12, risuteganib group (1 mg IVT day 1 + wk 16)
[9] = Week 12 change, Group 2 (1 mg IVT day 1 + wk 16)
[10] = Week 12 change, risuteganib group (1 mg IVT day 1 + wk 16)
[11] = Week 32, Group 1 crossover (sham day 1, 1 mg IVT wk 16)
[12] = Week 32, Group 2 (1 mg IVT day 1 + wk 16)
[13] = Week 32, risuteganib group (1 mg IVT day 1 + wk 16)
[14] = Week 32, sham group after crossover to 1 risuteganib injection (wk 16)
[15] = Week 32 change, Group 1 crossover (sham day 1, 1 mg IVT wk 16)
[16] = Week 32 change, Group 2 (1 mg IVT day 1 + wk 16)
[17] = Week 32 change, risuteganib group (1 mg IVT day 1 + wk 16)
[18] = Week 32 change, sham group after crossover to 1 risuteganib injection (wk 16)

SMILES: C[C@@H](O)[C@H](NC(=O)[C@H](CS(=O)(=O)O)NC(=O)CNC(=O)[C@H](CCCNC(=N)N)NC(=O)CN)C(=O)N1CCC[C@H]1C(=O)O [risuteganib, Glycyl-L-arginylglycyl-3-sulfo-L-alanyl-L-threonyl-L-proline] (H-GRG[Cya]TP-OH)
- Humphrey visual field pattern standard deviation, mean [1, 7]: 3.350 dB
- Humphrey visual field pattern standard deviation, median [1, 7]: 1.630 dB
- Humphrey visual field mean deviation, mean [1, 8]: −5.502 dB
- Humphrey visual field mean deviation, median [1, 8]: −3.500 dB
- Humphrey visual field pattern standard deviation change, median [1, 9]: −0.090 dB
- Humphrey visual field mean deviation change, mean [1, 10]: 0.302 dB
- Humphrey visual field mean deviation change, median [1, 10]: 0.100 dB
- Humphrey visual field pattern standard deviation, mean [1, 11]: 2.790 dB
- Humphrey visual field pattern standard deviation, median [1, 11]: 2.410 dB
- Humphrey visual field pattern standard deviation, mean [1, 12]: 3.113 dB
- Humphrey visual field pattern standard deviation, median [1, 12]: 2.050 dB
- Humphrey visual field mean deviation, mean [1, 13]: −5.211 dB
- Humphrey visual field mean deviation, median [1, 13]: −3.470 dB
- Humphrey visual field mean deviation, mean [1, 14]: −4.055 dB
- Humphrey visual field mean deviation, median [1, 14]: −2.260 dB
- Humphrey visual field pattern standard deviation change, mean [1, 15]: 0.469 dB
- Humphrey visual field pattern standard deviation change, median [1, 15]: 0.360 dB
- Humphrey visual field pattern standard deviation change, mean [1, 16]: 0.115 dB
- Humphrey visual field pattern standard deviation change, median [1, 16]: 0.045 dB
- Humphrey visual field mean deviation change, mean [1, 17]: 0.191 dB
- Humphrey visual field mean deviation change, median [1, 17]: −0.040 dB
- Humphrey visual field mean deviation change, mean [1, 18]: 0.158 dB
- Humphrey visual field mean deviation change, median [1, 18]: −0.070 dB
- Low-luminance visual acuity letters read, mean [2, 7]: 46.4 letters read
- Low-luminance visual acuity letters read, median [2, 7]: 48.0 letters read
- Low-luminance visual acuity change in letters read, median [2, 9]: −1.0 letters read
- Low-luminance visual acuity letters read, mean [2, 11]: 50.7 letters read
- Low-luminance visual acuity letters read, median [2, 11]: 57.0 letters read
- Low-luminance visual acuity letters read, mean [2, 12]: 49.4 letters read
- Low-luminance visual acuity letters read, median [2, 12]: 51.0 letters read
- Low-luminance visual acuity change in letters read, mean [2, 15]: 2.6 letters read
- Low-luminance visual acuity change in letters read, median [2, 15]: 3.0 letters read
- Low-luminance visual acuity change in letters read, mean [2, 16]: 2.0 letters read
- Low-luminance visual acuity change in letters read, median [2, 16]: 0.0 letters read
- Change in cell viability, treatment alone [3]: did not induce detectable change in cell viability
- Change in ROS level compared to untreated control [4]: −19%
- Reduction of HQ-induced ROS production (primary human RPE cells [5]): 61%
- Improvement of HQ-reduced cell viability (primary human RPE cells [6]): 16%

— patent US20220031800A1, “PEPTIDES FOR TREATING NON-EXUDATIVE MACULAR DEGENERATION AND OTHER DISORDERS OF THE EYE” (Allegro Pharmaceuticals, LLC, priority 2019, published 2022)
